Source: patent EP0114002B1, “Benzothiopyrano(4,3,2,-cd)indazoles, their pharmaceutical compositions and methods for their production” (WARNER-LAMBERT COMPANY, priority 1983, dated 1984)
Structures can show the parent of a compound that is named as a salt. Where two headings read alike, the source gives them in different places.

How the values were obtained:
L1210 cells = test: L1210 murine leukemia cell growth inhibition in vitro; assay type: cell-based; details: Mus musculus, 72 h
Protocol: Another test protocol uses L1210 cells, a murine leukemia cell line, grown in RPMI 1640 supplemented with 5% fetal bovine serum and gentamicin ([…]). Drug dilutions are prepared in the appropriate solvent and 20 µl of each dilution are added to 24-well Linbro tissue culture plates, followed by the addition of 2.0 ml of cell suspension containing 3 x 10^4 cells per ml. Solvent and medium controls are included in each test. After incubation at 37°C forthree days in 5% C02, the contents of each well are removed and the cells counted in a ZBI Coulter counter. Percent growth are calculated relative to the controls and the levels of drug activity are expressed as ID50 in moles per liter.

[1] = tested on: lymphocytic leukemia P388; test: in vivo lymphocytic leukemia P388 test; parameters: species or system mice; details: Mus musculus, P388, ip, 120 h, read-out: P388 in vivo T/C × 100; for response vs control in vivo at 6.25 mg/kg: Dose 6.25 mg/kg intraperitoneally once daily for five days; for response vs control in vivo at 25 mg/kg: Dose 25.00 mg/kg intraperitoneally once daily for five days; for response vs control in vivo at 100 mg/kg: Dose 100.00 mg/kg intraperitoneally once daily for five days; for response vs control in vivo at 12.5 mg/kg: Dose 12.50 mg/kg intraperitoneally once daily for five days; for response vs control in vivo at 3.12 mg/kg: Dose 3.12 mg/kg intraperitoneally once daily for five days; for response vs control in vivo at 50 mg/kg: Dose 50.00 mg/kg intraperitoneally once daily for five days
Protocol: Another test protocol is the in vivo lymphocytic leukemia P388 test. The animals used are either male or female CD2F, mice. There are six or seven animals per test group. The tumor transplant is by intraperitoneal injection of dilute ascitic fluid containing cells of lymphocytic leukemia P388. The test compounds are administered intraperitoneally once daily for five consecutive days at various doses following tumor inoculation. The animals are weighed and survivors are recorded on a regular basis for 30 days. A compound is designated "toxic" if, at a given dose, all animals died prior to four days after the first injection of drug. A ratio of survival time for treated (T)/control (C) animals is calculated. A criterion for efficacy is a ratio T/C times 100 greater than or equal to 125. See Cancer Chemotherapy Reports, Part 3, 3; 1 (1972) for a comprehensive discussion of the protocol.

HCT-8 cells = test: in vitro proliferating human colon adenocarcinoma (HCA) cell screen; assay type: cell-based
Protocol: One test protocol is the in vitro proliferating human colon adenocarcinoma (HCA) cell screen. In this test, HCT-8 cells (HCA cell line received from Yale University) are trypsinized using trypsin-EDTA. A single cell suspension is achieved by passing the cells through a 26 gauge needle with a 20 cc syringe. A cell suspension is prepared using RPMI 1640 + 10% FCS + 50) g/ml gentamicin sulfate with a cell concentration of approximately 30,000 cells/ml. The cell suspension is dispensed in Linbro 24-well plates; 1 ml/well. The plates are incubated for approximately 48 hours at 37°C in a 5% C02 atmosphere. At this time test compounds are added in the appropriate concentration. Five µl of the 200 µg/ml stock solution is added to each well in primary test. Ten µl of the appropirate dilution is added to each well for a titration test. The plates are re-incubated an additional 60 to 65 hours at 37°C in a 5% C02 atmosphere. The cells are lysed using a mix of cationic surfactant, glacial acetic acid, and sodium chloride. Two ml of the lysed cell suspension from each well is added to 8 ml of diluent. The number of nuclei is determined using a Coulter counter (ZBI model), and a percent growth for each drug concentration is calculated. From this, an ID50 molar concentration of a compound (that results in 50% inhibition of growth) is determined.

[2] = tested on: Penicillium avellaneum M2988; test: in vitro antibacterial/antifungal (ABF) agar-disk diffusion test; assay type: cell-based; details: Hamigera avellanea, 3 mg/ml, read-out: ABF Zone Diameter (cont. in mg/ml) P. Avell-aneum
Protocol: (§1) Still another test protocol is the in vitro antibacterial/antifungal (ABF) test. Compounds are tested for antimicrobial activity in an agar-disk diffusion assay, a standard microbiological technique for testing antibiotics'. After incubation of each culture with a test compound, a zone of inhibition is determined. The zone diameter (mm) of active compounds ranges from a minimum of 13.5 mm to as high as 60 mm, with a greater diameter reflecting higher activity. For convenience, values are reported for two gram-negative bacteria (Aerobacter aerogenes 0126 and Escherichia coli 04863), two gram-positive bacteria (Bacillus subtilis 04555 and Streptococcus faecalis 05045 utilizing AM-09 medium), and one mycelial fungus (Penicillium avellaneum M2988).

[3] = tested on: Streptococcus faecalis 05045; test: as above; assay type: cell-based; details: Enterococcus faecalis, AM-09 medium, 3 mg/ml, read-out: ABF Zone Diameter (cont. in mg/ml) S. Fae-calis
Protocol: as §1

Escherichia coli 04863 = test: as above; assay type: cell-based; details: 0.1 mg/ml, read-out: ABF Zone Diameter (cont. in mg/ml) E. Coli
Protocol: as §1

[4] = tested on: Aerobacter aerogenes 0126; test: as above; assay type: cell-based; details: Klebsiella aerogenes, 0.1 mg/ml, read-out: ABF Zone Diameter (cont. in mg/ml) A. Aero-genes
Protocol: as §1

Bacillus subtilis 04555 = test: as above; assay type: cell-based; details: 0.1 mg/ml, read-out: ABF Zone Diameter (cont. in mg/ml) B. Sub-tilis
Protocol: as §1

[5] = Table 2, three days incubation, read-out: L1210 in vitro IC50
[6] = Table 2, 60 to 65 hours with compound, read-out: HCA—3 in vitro IC50
[7] = Table 1, three days incubation, 50% inhibition of growth, read-out: L1210 in vitro ID50
[8] = Table 1, 60 to 65 hours with compound, 50% inhibition of growth, read-out: HCA—3 in vitro ID50

CCN(CC)CCn1nc2c3c(c(N)ccc31)Sc1ccc(O)cc1-2 [CH2CH2N(C2H5)2 / NH2 / 9-OH, 5-Amino-2-[2-(diethylamino)ethyl]-2H[1]benzothiopyrano[4,3,2-cd]indazol-9-ol]
IC50 (L1210 cells; [5]): 12 nM
response vs control in vivo at 6.25 mg/kg [1]: 238%
IC50 (HCT-8 cells; [6]): 28 nM

CCN(CC)CCn1nc2c3c(c(NCCNCCO)ccc31)Sc1ccc(OC)cc1-2 [2-[[2-[[2-(2-(Diethylamino)ethyl]-9-methoxy-2H[1]benzothiopyrano[4,3,2-cd]indazol-5-yl]amino]ethyl]amino]ethanol]
IC50 (L1210 cells; [5]): 200 nM
response vs control in vivo at 25 mg/kg [1]: 177%
IC50 (HCT-8 cells; [6]): 230 nM

CCN(CC)CCn1nc2c3c(c(NCCN4CCOC4=O)ccc31)Sc1ccc(OC)cc1-2 [CH2CH2N(C2H5)2 / [drawing] / 9-OCH3, 3-[2-[[2-[2-(Diethylamino)ethyl]-9-methoxy-2H[1]benzothiopyrano[4,3,2-cd]indazol-5-yl]amino]ethyl]-2-oxazolidinone]
response vs control in vivo at 100 mg/kg [1]: 220%
IC50 (HCT-8 cells; [6]): 1000 nM

CN(C)CCCn1nc2c3c(c([N+](=O)[O-])ccc31)Sc1ccccc1-2 [CH2CH2CH2N(CH3)2 / NO2, N,N dimethyl-5-nitro-2H[1]benzothiopyrano[4,3,2-cd]indazole-2-propanamine]
IC50 (L1210 cells; [7]): 190 nM
response vs control in vivo at 25 mg/kg [1]: 121%
response vs control in vivo at 100 mg/kg [1]: 141%
IC50 (HCT-8 cells; [8]): 210 nM

CCN(CC)CCn1nc2c3c(c(NCCN)ccc31)Sc1ccc(OC)cc1-2 [CH2CH2N(C2H5)2 / NHCH2CH2NH2 / 9-OCH3]
IC50 (L1210 cells; [5]): 210 nM
response vs control in vivo at 12.5 mg/kg [1]: 177%
IC50 (HCT-8 cells; [6]): 290 nM

CCN(CC)CCNc1ccc2c3c(nn2CCNCCO)-c2ccccc2Sc13 [CH2CH2NHCH2CH2OH / NHCH2CH2N(C2H5)2, 2-[[2-[5-[[2-(Diethylamino)ethyl]amino]-2H[1]benzothiopyrano[4,3,2-cd]indazol-2-yl]ethyl]amino]ethanol]
IC50 (L1210 cells; [7]): 240 nM
response vs control in vivo at 3.12 mg/kg [1]: 134%
response vs control in vivo at 6.25 mg/kg [1]: 137%
response vs control in vivo at 12.5 mg/kg [1]: 135%
response vs control in vivo at 25 mg/kg [1]: 147%
IC50 (HCT-8 cells; [8]): 450 nM

CCNCCn1nc2c3c(c([N+](=O)[O-])ccc31)Sc1ccccc1-2 [CH2CH2NHC2H5 / NO2 / C17H16N4O2S·HCl]
IC50 (L1210 cells; [7]): 24 nM
response vs control in vivo at 12.5 mg/kg [1]: 187%
IC50 (HCT-8 cells; [8]): 140 nM

CCN(CC)CCn1nc2c3c(c(NCCN4CCOC4=O)ccc31)Sc1ccc(O)cc1-2 [CH2CH2N(C2H5)2 / [drawing] / 9-OH, 3-[2-[[2-[2-(diethylamino)ethyl]-9-hydroxy-2H[1]benzothiopyrano[4,3,2-cd]indazol-5-yl]amino]ethyl]-2-oxazolidinone]
IC50 (L1210 cells; [5]): 5.5 nM
response vs control in vivo at 12.5 mg/kg [1]: 175%
IC50 (HCT-8 cells; [6]): 24 nM

CCN(CC)CCn1nc2c3c(c([N+](=O)[O-])ccc31)Sc1c(OC)ccc(OC)c1-2 [CH2CH2N(C2H5)2 / NO2 / 7,10-(OCH3)2, N,N-Diethyl-7,10-dimethoxy-5-nitro-2H[1]benzothiopyrano[4,3,2-cd]indazol-2-ethanamine]
IC50 (L1210 cells; [5]): 1300 nM
IC50 (HCT-8 cells; [6]): 500 nM

CCN(CC)CCn1nc2c3c(c(NC(=O)CCl)ccc31)Sc1ccccc1-2 [CH2CH2N(C2H5)2 / NHCOCH2Cl, 2-Chloro-N-[2-[2-(diethylamino)ethyl]-2H[1]benzothiopyrano[4,3,2-cd]indazol-5-yl]acetamide]
IC50 (L1210 cells; [7]): 190 nM
response vs control in vivo at 25 mg/kg [1]: 124%
response vs control in vivo at 50 mg/kg [1]: 165%
IC50 (HCT-8 cells; [8]): 380 nM

CCN(CC)CCn1nc2c3c(c(N)ccc31)Sc1ccc(OC)cc1-2 [CH2CH2NHCH2CH2OH / NH2 / 9-OCH3, 5-Amino-N,N-diethyl-9-methoxy-2H[1]benzothiopyrano[4,3,2-cd]indazole-2-ethanamine]
IC50 (L1210 cells; [5]): 1600 nM
response vs control in vivo at 50 mg/kg [1]: 154%

NCCn1nc2c3c(c([N+](=O)[O-])ccc31)Sc1ccccc1-2 [CH2CH2NH2 / NO2 / >300]
response vs control in vivo at 12.5 mg/kg [1]: 136%
response vs control in vivo at 25 mg/kg [1]: 187%

CN(C)CCCn1nc2c3c(c(NCCN)ccc31)Sc1ccccc1-2 [(CH2)3N(CH3)2 / NHCH2CH2NH2, N-[2-[3-(dimethylamino)propyl]-2H[1]benzothiopyrano[4,3,2-cd]indazol-5-yl]-1,2-ethanediamine]
IC50 (L1210 cells; [7]): 29 nM
response vs control in vivo at 6.25 mg/kg [1]: 185%
response vs control in vivo at 12.5 mg/kg [1]: 298%
IC50 (HCT-8 cells; [8]): 130 nM

CCNCCn1nc2c3c(c(N)ccc31)Sc1ccccc1-2 [CH2CH2NHC2H5 / NO2 / C17H18N4S·2HCl]
IC50 (L1210 cells; [7]): 71 nM
response vs control in vivo at 12.5 mg/kg [1]: 188%
IC50 (HCT-8 cells; [8]): 300 nM

CCN(CC)CCn1nc2c3c(c([N+](=O)[O-])ccc31)Sc1ccc(OC)cc1-2 [CH2CH2NHCH2CH2OH / NO2 / C20H22N4O3S, N,N-Diethyl-9-methoxy-5-nitro-2H[1]benzothiopyrano[4,3,2-cd]indazole-2-ethanamine]
IC50 (L1210 cells; [5]): 640 nM
response vs control in vivo at 12.5 mg/kg [1]: 142%
response vs control in vivo at 25 mg/kg [1]: 209%

CCN(CC)CCn1nc2c3c(c([N+](=O)[O-])ccc31)Sc1c(O)ccc(O)c1-2 [CH2CH2N(C2H5)2 / NO2 / 7,10-(OH)2]
IC50 (L1210 cells; [5]): 1700 nM

CCN(CC)CCn1nc2c3c(c(NCCCN)ccc31)Sc1ccccc1-2 [CH2CH2N(C2H5)2 / NHCH2CH2CH2NH2]
IC50 (L1210 cells; [7]): 290 nM
response vs control in vivo at 3.12 mg/kg [1]: 132%
response vs control in vivo at 6.25 mg/kg [1]: 142%
response vs control in vivo at 12.5 mg/kg [1]: 154%
response vs control in vivo at 25 mg/kg [1]: 169%
IC50 (HCT-8 cells; [8]): 880 nM

CCN(CC)CCn1nc2c3c(c([N+](=O)[O-])ccc31)Sc1c(OC)ccc(O)c1-2 [CH2CH2N(C2H5)2 / NO2 / 7-OCH3, 10-OH, 2-[2-(diethylamino)-ethyl]-7-methoxy-5-nitro-2H[1]benzothiopyrano[4,3,2-cd]indazol-10-ol]
IC50 (L1210 cells; [5]): 1000 nM
IC50 (HCT-8 cells; [6]): 420 nM

NCCn1nc2c3c(c([N+](=O)[O-])ccc31)Sc1ccccc1-2 [CH2CH2NH2 / NO2 / 199—203, 5-Nitro-2H[1]benzothiopyrano[4,3,2-cd]indazole-2-ethanamine]
zone of inhibition at 3000 µg/mL [2]: 0 mm
zone of inhibition at 3000 µg/mL [3]: 0 mm
zone of inhibition at 100 µg/mL (Escherichia coli 04863): 15 mm
zone of inhibition at 100 µg/mL [4]: 18 mm
zone of inhibition at 100 µg/mL (Bacillus subtilis 04555): 17 mm
IC50 (HCT-8 cells; [8]): 200 nM
